The data set concerns rodent lifetime carcinogenesis bioassay, tumor incidence TD50. Description: chronic cancer bioassays in animals – CPDB, compiled studies (AID 1745844).

Calls of active or inactive are those of the source. The rule behind the calls is not given here.

In PubChem BioAssay AID1745844 (Carcinogenic Potency Database (CPDB), 2022) one finds TD50 and carcinogen call data, which are given here for 8 compounds.

One may read the TD50 as the dose at which the toxic effect under study appears in half of the subjects.

With `CN(N=O)c1ccccc1`, the TD50 reads like this: (rat, strain Chester Beatty albino, females, in drinking water, site: esophagus, lesion: benign tumor, dosed 67 weeks, study length 67 weeks) 32 mg/kg/day; (rat, strain Chester Beatty albino, females, in drinking water, site: esophagus, lesion: squamous-cell carcinoma, dosed 67 weeks, study length 67 weeks) 26.4 mg/kg/day; (rat, strain Chester Beatty albino, males, in drinking water, site: esophagus, lesion: benign tumor, dosed 60 weeks, study length 60 weeks) 70.4 mg/kg/day; (rat, strain Chester Beatty albino, males, in drinking water, site: esophagus, lesion: several types, types named in the paper, dosed 60 weeks, study length 60 weeks) 5.27 mg/kg/day; (rat, strain Chester Beatty albino, males, in drinking water, site: esophagus, lesion: squamous-cell carcinoma, dosed 60 weeks, study length 60 weeks) 10.5 mg/kg/day; (rat, strain Fischer 344, females, in drinking water, site: esophagus, lesion: carcinoma, dosed 50 weeks, study length 114 weeks) 0.458 mg/kg/day. The TD50 reads like this: (rat, strain Fischer 344, males, in drinking water, site: esophagus, lesion: several types, types named in the paper, dosed 50 weeks, study length 114 weeks) 0.272 mg/kg/day; (rat, strain Sprague-Dawley, both sexes, in drinking water, site: esophagus, lesion: several types, types named in the paper, dosed 104 weeks, study length 104 weeks) 0.0343 mg/kg/day. The carcinogen call is “positive” (rat, strain Chester Beatty albino, females, in drinking water, site: esophagus, lesion: several types, types named in the paper, dosed 67 weeks, study length 67 weeks); “negative (inactive)” (rat, strain Chester Beatty albino, females, in drinking water, site: liver, lesion: one or several types, types not named, dosed 67 weeks, study length 67 weeks); “negative (inactive)” (rat, strain Chester Beatty albino, males, in drinking water, site: liver, lesion: one or several types, types not named, dosed 60 weeks, study length 60 weeks).
Consider `CCCCCCCCCCCCCCCC(=O)OC/C=C(C)/C=C/C=C(C)/C=C/C1=C(C)CCCC1(C)C`, for which the carcinogen call (mouse, strain ICR/Jcl, males, in drinking water, site: forestomach, lesion: one or several types, types not named, dosed 66 weeks, study length 66 weeks) was “negative (inactive)”.
For `O=C(OOC(=O)c1ccccc1)c1ccccc1`, the carcinogen call (mouse, strain albino, both sexes, in feed, site: liver, lesion: hepatoma, dosed 80 weeks, study length 80 weeks) is “negative (inactive)”; the carcinogen call (mouse, strain albino, both sexes, in feed, site: lung, lesion: adenoma, dosed 80 weeks, study length 80 weeks) was “negative (inactive)”; the carcinogen call (rat, strain albino, both sexes, in feed, site: liver, lesion: malignant hepatoma, dosed 120 weeks, study length 120 weeks) was “negative (inactive)”. Moreover, the TD50 reads like this: (rat, strain albino, both sexes, in feed, site: any site (literature study), lesion: benign tumor, dosed 120 weeks, study length 120 weeks) 6480 mg/kg/day (inactive); (rat, strain albino, both sexes, in feed, site: any site (literature study), lesion: malignant tumor, dosed 120 weeks, study length 120 weeks) 15600 mg/kg/day (inactive).
As for `BrC(Br)Br`, the TD50 is, setting by setting: (mouse, strain B6C3F1, females, by gavage, site: liver + spleen, lesion: hemangiosarcoma, dosed 103 weeks, study length 106 weeks) 1110 mg/kg/day (inactive); (mouse, strain B6C3F1, females, by gavage, site: liver, lesion: hepatocellular adenoma + hepatocellular carcinoma + neoplastic nodule, dosed 103 weeks, study length 106 weeks) 570 mg/kg/day; (mouse, strain B6C3F1, males, by gavage, site: any site (literature study), lesion: several types, types named in the paper, dosed 103 weeks, study length 106 weeks) 41 mg/kg/day; (mouse, strain B6C3F1, males, by gavage, site: liver, lesion: hepatocellular adenoma + hepatocellular carcinoma + neoplastic nodule, dosed 103 weeks, study length 106 weeks) 53.6 mg/kg/day; (mouse, strain B6C3F1, males, by gavage, site: lung, lesion: alveolar/bronchiolar adenoma + alveolar/bronchiolar carcinoma, dosed 103 weeks, study length 106 weeks) 2450 mg/kg/day; (mouse, strain B6C3F1, males, by gavage, site: subcutaneous tissue, lesion: fibrosarcoma + sarcoma, dosed 103 weeks, study length 106 weeks) 81.9 mg/kg/day (inactive). For the same compound, the TD50 reads like this: (rat, strain Fischer 344, females, by gavage, site: large intestine, lesion: adenocarcinoma + polypoid adenoma, dosed 103 weeks, study length 106 weeks) 469 mg/kg/day; (rat, strain Fischer 344, females, by gavage, site: large intestine, lesion: polypoid adenoma, dosed 103 weeks, study length 106 weeks) 632 mg/kg/day; (rat, strain Fischer 344, females, by gavage, site: liver, lesion: hepatocellular adenoma + hepatocellular carcinoma + neoplastic nodule, dosed 103 weeks, study length 106 weeks) 676 mg/kg/day; (rat, strain Fischer 344, males, by gavage, site: any site (literature study), lesion: several types, types named in the paper, dosed 103 weeks, study length 105 weeks) 513 mg/kg/day; (rat, strain Fischer 344, males, by gavage, site: large intestine, lesion: adenocarcinoma + polypoid adenoma, dosed 103 weeks, study length 105 weeks) 1050 mg/kg/day; (rat, strain Fischer 344, males, by gavage, site: testis, lesion: interstitial-cell adenoma, bilateral + interstitial-cell adenoma, dosed 103 weeks, study length 105 weeks) 75 mg/kg/day. For the setting “rat, strain Fischer 344, males, by gavage, site: thyroid gland, lesion: follicular-cell carcinoma, dosed 103 weeks, study length 105 weeks”, this compound registered a TD50 of 656 mg/kg/day.
With `CCN(CC)CCOc1ccc(C(O)(Cc2ccc(OC)cc2)c2ccccc2)cc1` (stereo not drawn), the carcinogen call (rat, strain Not specified, females, by gavage, site: mammary tissue, wider than the gland, lesion: one or several types, types not named, dosed 52 weeks, study length 52 weeks) was “negative (inactive)”.
Turning to `NCCCCCCCCCCC(=O)O`, the TD50 runs as follows: (mouse, strain B6C3F1, females, in feed, site: any site (literature study), lesion: several types, types named in the paper, dosed 103 weeks, study length 109 weeks) 15600 mg/kg/day (inactive); (mouse, strain B6C3F1, females, in feed, site: liver, lesion: hepatocellular adenoma + hepatocellular carcinoma + neoplastic nodule, dosed 103 weeks, study length 109 weeks) 37900 mg/kg/day; (mouse, strain B6C3F1, females, in feed, site: lung, lesion: alveolar/bronchiolar adenoma + alveolar/bronchiolar carcinoma, dosed 103 weeks, study length 109 weeks) 18800 mg/kg/day; (mouse, strain B6C3F1, males, in feed, site: all sites, lesion: malignant lymphoma, dosed 103 weeks, study length 109 weeks) 4970 mg/kg/day (inactive); (mouse, strain B6C3F1, males, in feed, site: any site (literature study), lesion: several types, types named in the paper, dosed 103 weeks, study length 109 weeks) 6500 mg/kg/day; (mouse, strain B6C3F1, males, in feed, site: liver, lesion: hepatocellular adenoma + hepatocellular carcinoma + neoplastic nodule, dosed 103 weeks, study length 109 weeks) 6250 mg/kg/day. Besides, the TD50 is, setting by setting: (rat, strain Fischer 344, females, in feed, site: any site (literature study), lesion: several types, types named in the paper, dosed 104 weeks, study length 109 weeks) 1250 mg/kg/day (inactive); (rat, strain Fischer 344, females, in feed, site: liver, lesion: hepatocellular adenoma + hepatocellular carcinoma + neoplastic nodule, dosed 104 weeks, study length 109 weeks) 44600 mg/kg/day; (rat, strain Fischer 344, males, in feed, site: any site (literature study), lesion: several types, types named in the paper, dosed 104 weeks, study length 109 weeks) 802 mg/kg/day; (rat, strain Fischer 344, males, in feed, site: liver + urinary bladder, lesion: hepatocellular carcinoma + neoplastic nodule + transitional-cell carcinoma, dosed 104 weeks, study length 109 weeks) 833 mg/kg/day; (rat, strain Fischer 344, males, in feed, site: liver, lesion: hepatocellular adenoma + hepatocellular carcinoma + neoplastic nodule, dosed 104 weeks, study length 109 weeks) 1100 mg/kg/day; (rat, strain Fischer 344, males, in feed, site: liver, lesion: hepatocellular carcinoma + neoplastic nodule, dosed 104 weeks, study length 109 weeks) 1100 mg/kg/day. In addition, the TD50 reads like this: (rat, strain Fischer 344, males, in feed, site: liver, lesion: neoplastic nodule, dosed 104 weeks, study length 109 weeks) 1290 mg/kg/day; (rat, strain Fischer 344, males, in feed, site: mammary gland, lesion: fibroadenoma, dosed 104 weeks, study length 109 weeks) 2910 mg/kg/day; (rat, strain Fischer 344, males, in feed, site: urinary bladder, lesion: transitional-cell carcinoma, dosed 104 weeks, study length 109 weeks) 3170 mg/kg/day.
Regarding `CCCOC(=O)c1cc(O)c(O)c(O)c1`, the TD50 was 21400 mg/kg/day (mouse, strain B6C3F1, females, in feed, site: liver, lesion: hepatocellular adenoma + hepatocellular carcinoma + neoplastic nodule, dosed 103 weeks, study length 105 weeks); 8260 mg/kg/day (inactive) (mouse, strain B6C3F1, females, in feed, site: liver, lesion: hepatocellular adenoma, dosed 103 weeks, study length 105 weeks); 44300 mg/kg/day (mouse, strain B6C3F1, females, in feed, site: lung, lesion: alveolar/bronchiolar adenoma + alveolar/bronchiolar carcinoma, dosed 103 weeks, study length 105 weeks); 15100 mg/kg/day (mouse, strain B6C3F1, males, in feed, site: all sites, lesion: lymphoma, histiocytic type, dosed 103 weeks, study length 105 weeks); 6540 mg/kg/day (inactive) (mouse, strain B6C3F1, males, in feed, site: all sites, lesion: lymphoma, dosed 103 weeks, study length 105 weeks); 12100 mg/kg/day (mouse, strain B6C3F1, males, in feed, site: all sites, lesion: malignant lymphoma, dosed 103 weeks, study length 105 weeks). For the same compound, the TD50 (mouse, strain B6C3F1, males, in feed, site: any site (literature study), lesion: several types, types named in the paper, dosed 103 weeks, study length 105 weeks) is 3640 mg/kg/day; the TD50 (mouse, strain B6C3F1, males, in feed, site: lung, lesion: alveolar/bronchiolar adenoma + alveolar/bronchiolar carcinoma, dosed 103 weeks, study length 105 weeks) turned out to be 55600 mg/kg/day; the TD50 (rat, strain Fischer 344, females, in feed, site: mammary gland, lesion: adenoma, dosed 103 weeks, study length 105 weeks) is 8080 mg/kg/day (inactive); the TD50 (rat, strain Fischer 344, males, in feed, site: adrenal gland, lesion: pheochromocytoma + pheochromocytoma, malignant, dosed 103 weeks, study length 105 weeks) amounted to 613 mg/kg/day; the TD50 (rat, strain Fischer 344, males, in feed, site: adrenal gland, lesion: pheochromocytoma, dosed 103 weeks, study length 105 weeks) was found to be 613 mg/kg/day; the TD50 (rat, strain Fischer 344, males, in feed, site: pancreatic islets, lesion: islet-cell adenoma + islet-cell carcinoma, dosed 103 weeks, study length 105 weeks) was 840 mg/kg/day. Moreover, the TD50 (rat, strain Fischer 344, males, in feed, site: pancreatic islets, lesion: islet-cell adenoma, dosed 103 weeks, study length 105 weeks) is 749 mg/kg/day (inactive); the TD50 (rat, strain Fischer 344, males, in feed, site: preputial gland, lesion: adenocarcinoma + adenoma + carcinoma, dosed 103 weeks, study length 105 weeks) came out at 1040 mg/kg/day; the TD50 (rat, strain Fischer 344, males, in feed, site: thyroid gland, lesion: follicular-cell adenoma + follicular-cell carcinoma, dosed 103 weeks, study length 105 weeks) stood at 6870 mg/kg/day. Also, the carcinogen call runs as follows: (rat, strain F344/DuCrj, males, in feed, site: esophagus, lesion: one or several types, types not named, dosed 52 weeks, study length 52 weeks) “negative (inactive)”; (rat, strain F344/DuCrj, males, in feed, site: forestomach, lesion: one or several types, types not named, dosed 52 weeks, study length 52 weeks) “negative (inactive)”; (rat, strain F344/DuCrj, males, in feed, site: liver, lesion: one or several types, types not named, dosed 52 weeks, study length 52 weeks) “negative (inactive)”.
As for `Cn1cc[nH]c1=S`, the TD50 (rat, strain Harlan, females, in feed, site: thyroid gland, lesion: follicular adenocarcinoma, dosed 104 weeks, study length 104 weeks) is 9.47 mg/kg/day; the TD50 (rat, strain Harlan, females, in feed, site: thyroid gland, lesion: follicular-cell adenoma, dosed 104 weeks, study length 104 weeks) was 1.57 mg/kg/day; the TD50 (rat, strain Harlan, males, in feed, site: thyroid gland, lesion: follicular adenocarcinoma, dosed 104 weeks, study length 104 weeks) is 37.6 mg/kg/day; the TD50 (rat, strain Harlan, males, in feed, site: thyroid gland, lesion: follicular-cell adenoma, dosed 104 weeks, study length 104 weeks) was 0.9 mg/kg/day.
